In ChEMBL document CHEMBL5143576, “Tigliane Diterpenoids with Larvicidal, Antifungal, and α-Glucosidase Inhibitory Activities from Croton damayeshu” (J Nat Prod, 2022):
≈ marks a conversion by molar mass, not a printed value.

What follows are molecules tested on Plutella xylostella (assay: Larvicidal activity against Plutella xylostella assessed as mortality and measured upto 4 days). Conditions: 96 h, time <= 4 day.
Assay type: functional

Compound | LC50 [nM]
CCCCC/C=C\CCC(=O)O[C@@]12[C@H](OC(=O)[C@@H](C)CC)[C@@H](C)[C@@]3(O)[C@@H](C(=O)C(CO)=C[C@]4(O)C(=O)C(C)=C[C@@H]34)[C@@H]1C2(C)C | 190
CC/C=C\C/C=C\CCC(=O)O[C@@]12[C@H](OC(=O)[C@@H](C)CC)[C@@H](C)[C@@]3(O)[C@@H](C(=O)C(CO)=C[C@]4(O)C(=O)C(C)=C[C@@H]34)[C@@H]1C2(C)C | 160
C/C=C(\C)C(=O)O[C@@H]1[C@@H](C)[C@@]2(O)[C@@H](C(=O)C(CO)=C[C@]3(O)C(=O)C(C)=C[C@@H]23)[C@@H]2C(C)(C)[C@]12OC(=O)CC/C=C\CCCCC | 260
Cc1cc(C(F)(C(F)(F)F)C(F)(F)F)ccc1NC(=O)c1cccc(I)c1C(=O)NC(C)(C)CS(C)(=O)=O [FLUBENDIAMIDE] | 140

Each molecule was assayed on Candida albicans (assay: Antifungal activity against Fluconazole- resistant Candida albicans incubated for 24 hrs by microbroth dilution method). Conditions: not given.
Assay type: functional

Compound | MIC50 [µg/mL]
CCCCC/C=C\CCC(=O)O[C@@]12[C@H](OC(=O)[C@@H](C)CC)[C@@H](C)[C@@]3(O)[C@@H](C(=O)C(CO)=C[C@]4(O)C(=O)C(C)=C[C@@H]34)[C@@H]1C2(C)C | 200 (≈ 325 µM)
CC/C=C\C/C=C\CCC(=O)O[C@@]12[C@H](OC(=O)[C@@H](C)CC)[C@@H](C)[C@@]3(O)[C@@H](C(=O)C(CO)=C[C@]4(O)C(=O)C(C)=C[C@@H]34)[C@@H]1C2(C)C | 159 (≈ 260 µM)
CC[C@H](C)C(=O)O[C@@H]1[C@@H](C)[C@@]2(O)[C@@H](C(=O)C(CO)=C[C@]3(O)C(=O)C(C)=C[C@@H]23)[C@@H]2C(C)(C)[C@]12OC(=O)[C@@H](C)CC | 15.1 (≈ 27.6 µM)
CCCCCCCCCC(=O)O[C@@]12[C@H](OC(=O)[C@@H](C)CC)[C@@H](C)[C@@]3(O)[C@@H](C(=O)C(CO)=C[C@]4(O)C(=O)C(C)=C[C@@H]34)[C@@H]1C2(C)C | 161 (≈ 261 µM)
CCCCCCCC(=O)O[C@@]12[C@H](OC(=O)[C@@H](C)CC)[C@@H](C)[C@@]3(O)[C@@H](C(=O)C(CO)=C[C@]4(O)C(=O)C(C)=C[C@@H]34)[C@@H]1C2(C)C | 114 (≈ 193 µM)

What follows are molecules tested on Candida albicans (assay: Antifungal activity against Fluconazole- resistant Candida albicans incubated for 24 hrs in presence of fluconazole by microbroth dilution method). Conditions: not given.
Assay type: functional

Compound | MIC50 [µg/mL]
CCCCC/C=C\CCC(=O)O[C@@]12[C@H](OC(=O)[C@@H](C)CC)[C@@H](C)[C@@]3(O)[C@@H](C(=O)C(CO)=C[C@]4(O)C(=O)C(C)=C[C@@H]34)[C@@H]1C2(C)C | 63.4
CC[C@H](C)C(=O)O[C@@]12[C@H](OC(=O)c3ccccc3)[C@@H](C)[C@@]3(O)[C@@H](C=C(CO)C[C@]4(O)C(=O)C(C)=C[C@@H]34)[C@@H]1C2(C)C | 5.1
CC/C=C\C/C=C\CCC(=O)O[C@@]12[C@H](OC(=O)[C@@H](C)CC)[C@@H](C)[C@@]3(O)[C@@H](C(=O)C(CO)=C[C@]4(O)C(=O)C(C)=C[C@@H]34)[C@@H]1C2(C)C | 11.9
CC[C@H](C)C(=O)O[C@@H]1[C@@H](C)[C@@]2(O)[C@@H](C(=O)C(CO)=C[C@]3(O)C(=O)C(C)=C[C@@H]23)[C@@H]2C(C)(C)[C@]12OC(=O)[C@@H](C)CC | 14
CCCCCCCCCC(=O)O[C@@]12[C@H](OC(=O)[C@@H](C)CC)[C@@H](C)[C@@]3(O)[C@@H](C(=O)C(CO)=C[C@]4(O)C(=O)C(C)=C[C@@H]34)[C@@H]1C2(C)C | 5.18
CCCCCCCC(=O)O[C@@]12[C@H](OC(=O)[C@@H](C)CC)[C@@H](C)[C@@]3(O)[C@@H](C(=O)C(CO)=C[C@]4(O)C(=O)C(C)=C[C@@H]34)[C@@H]1C2(C)C | 50.5

These molecules were tested on Candida albicans (assay: Antifungal activity against Candida albicans incubated for 24 hrs by microbroth dilution method). Conditions: not given.
Assay type: functional

Compound | MIC50 [µg/mL]
OC(Cn1cncn1)(Cn1cncn1)c1ccc(F)cc1F [FLUCONAZOLE] | 4.4 (≈ 14.4 µM)
